Like-named read-outs stand apart in the source and are kept apart here.
Key:
[1] = system: PC12 cells; format: cell-based, rat
[2] = system: PC12 cells; test: Neuroprotective action against β-amyloid, viable cell count / survival rate by WST-8 method; format: cell-based, rat; design: key to Neuroprotective action: +, P < 0.05 when compared with the no neuropeptide-added group; details: for relationship between concentration and neuroprotective action against β-amyloid: neuropeptides at various concentrations
Experimental: An experiment was performed similarly to Example 5, and then the neuroprotective action against cell death by β-amyloid of the following PACAP-related neuropeptides (peptides 1, 2, 4, 5, 7, 8, 15, 16, 17, 19, 21, 26, 27, 28, 29, 30, 31, 32, 33, 34, 35, 36, 37, 38 and 39) and VIP-related neuropeptides (peptides 3, 9, 10, 11, 12, 13, 14, 18, 20, 22, 23, 24 and 25) was confirmed. Specifically, amyloid (50 μM) and each of the various PACAP-related neuropeptides and VIP-related neuropeptides were added to the cultured PC12 cells. The number of […] calculated by the WST-8 method, so that comparison and examination was performed for the neuroprotective action of these various peptides against amyloid. If the neuropeptides had neuroprotective action, a clear difference in viable cell count can be observed between cases in which neuropeptides were added and cases in which neuropeptides were not added. In PC12 cells added with each of the various neuropeptides, a case wherein a higher cell survival rate (P<0.05) was observed compared with groups in which neuropeptides had not been added, was determined as having neuroprotective action. The results are shown in Table 1 and Table 2. β-amyloid was added to PC12 cells that had been cultured similarly to Example 5. At this time, neuropeptides PACAP27, VIP and humanin, and a cell-permeable cAMP derivative were allowed to respectively co-exist, so that the effect of these neuropeptides against cell death by β-amyloid was confirmed. Cell death was examined by evaluating cell count using the WST-8 method, and then by calculating cell survival rate. […] In the presence of β-amyloid, approximately 70% of the cells died. […] The neuroprotective action of humanin, a recently found human-derived neuroprotective substance (Proc Natl Acad Sci USA (2001) 98 (11) 6336-6341), was also examined. […] At this time, neuropeptides at various concentrations were allowed to co-exist, so that the relationship between the neuroprotective action and the concentration was investigated. Cells were calculated by the WST-8 method, and then the extent to which cell death by β-amyloid could be attenuated was expressed numerically.

[3] = system: PC12 cells
[4] = system: caspase-3; test: Caspase-3 activating action of β-amyloid and its suppression (Ac-DEVD-AMC substrate); format: cell-based, rat; details: 10^−5 M β-amyloid; PACAP 10^−9 M; FIG. 7
Experimental: PC12 cells that had been cultured almost similarly to Example 4 were cultured in a 24-well plate (2×10^5 cells/well). 10^−5 M β-amyloid was added to the plate. At this time, cAMP derivative (10^−4 M) and neuropeptide PACAP (10^−9 M) were added respectively, and then the action of activating caspase-3, an apoptosis-related enzyme, was examined. The caspase-3 activating action was examined using Ac-DEVD-AMC, a caspase-3 specific substrate. […] Further, by the addition of neuropeptide PACAP, an incomplete, approximately 50% suppressive effect was shown. […] Taking into consideration that this suppressive action is not complete, other action mechanisms may also be involved.

Row | Substance | degree of neuroprotective action against abnormal prion (106-126) [1] | Neuroprotective action ([2]; VIP-related neuropeptide 10^−7 M, amyloid (50 μM), cell survival rate vs no peptide) | neuroprotective action against cell death by β-amyloid (cell survival rate) ([2]; co-existing with β-amyloid, PACAP27 10^−9 M, FIG. 5) | relationship between concentration and neuroprotective action against β-amyloid ([2]; β-amyloid, FIG. 6) | cell death (lactate dehydrogenase released to the medium) [3] | suppressive effect on caspase-3 activation by β-amyloid [4] | degree of neuroprotective action against abnormal prion (106-126) ([1]; 50 μM abnormal prion (106-126), neuropeptides at various concentrations, FIG. 2) | neuroprotective action relative to that of VIP ([2]; β-amyloid, FIG. 6) | concentration at which the neuroprotective effect was strongest ([2]; β-amyloid, various concentrations, FIG. 6)
1 | VIP (HSDAVFTDNYTRLRKQMAVKKYLNSILN) [Peptide 3] | showed neuroprotective action at concentrations higher than that of PACAP | + | showed neuroprotective action against β-amyloid although the effect was weaker than that of PACAP27 | showed strong neuroprotective action at relatively high concentrations |  |  |  |  | 
2 | Prion (106-126) |  |  |  |  | cell death occurs depending on the concentration |  |  |  | 
3 | Pituitary Adenylate Cyclase Activating Polypeptide [PACAP] |  |  |  | showed neuroprotective action even at an extremely low concentration |  | approximately 50% | even at an extremely low concentrations, PACAP showed a certain degree of neuroprotective action | at least 1×10^4 fold | 10^−9 to 10^−13 M

Reference: patent US20040132648A1, “Remedies and/or preventives for conformational diseases” (priority 2001, published 2004)
